Results reported in the supplement of paper PMC7695840.
Where “and” joins values, the source holds several entries; their conditions need not be identical. Equal entries are not always repeated. Structures can show the parent of a compound that is named as a salt.

Experiments:
[1] = test system: Staphylococcus aureus MW2 (mecA+); assay: IC50 (growth, competition assay); conditions: cefoxitin: subinhibitory
Method in brief: (§1)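 Signals from DsRed (540/590) and GFP (485/520) were scaled on every plate between single-strain control medians, with No Treatment then set to 0.5. The cells were a 1:1 mix of pre-induced fluorescent S. aureus MW2 strains with and without the resistance gene, grown unshaken for 20 h at 37 °C and 90% humidity in LB in 1536-well plates under a subinhibitory drug dose set each day. Each strain's IC50 was defined as the dose halving the No Treatment signal, or the maximal signal.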

[2] = test system: Staphylococcus aureus MW2 delta-mecA (mecA-); assay: IC50 (growth, competition assay); conditions: cefoxitin: subinhibitory
Method in brief: as §1

Compound | IC50 ([1]; fluorescent label: DsRed) | IC50 ([1]; fluorescent label: GFP) | IC50 ([2]; fluorescent label: DsRed) | IC50 ([2]; fluorescent label: GFP)
O=c1oc2ccccc2c(O)c1Cc1c(O)c2ccccc2oc1=O [DICUMOL] | 11.6 µM | 18.2 µM | 14 µM | 27 µM
O=C(Nc1ncc(SCCN2CCCC2)s1)[C@]1(c2ccc(S(=O)(=O)C3CC3)cc2)C[C@H]1C1CCCCC1 | 111 µM | > 150 µM | 74.5 µM | 34.4 µM
NCC(=O)Nc1ccc(-n2nc(C(F)(F)F)cc2-c2ccc3c(ccc4ccccc43)c2)cc1 | 21.6 µM and 20.8 µM | 29.3 µM and 14.7 µM | 8.83 µM and 14.5 µM | 3.48 µM and 14.7 µM
O=S(=O)(c1ccccc1)N(CC(F)(F)F)c1ccc(C(O)(C(F)(F)F)C(F)(F)F)cc1 | 24.6 µM | 29.6 µM | < 9.85 µM | < 9.85 µM
N[C@@H]1CN(c2c(F)cc3c(=O)c(C(=O)O)cn([C@@H]4C[C@@H]4F)c3c2Cl)CC12CC2 [Sitafloxacin hydrate] | < 0.498 µM | < 0.498 µM | < 0.498 µM | < 0.498 µM
CC[C@@H](C(=O)[C@@H](C)[C@@H](O)[C@H](C)CCc1ccc(C)c(O)c1C(=O)O)[C@H]1O[C@](CC)([C@H]2CC[C@](O)(CC)[C@H](C)O2)C[C@@H]1C [BOVOTEC] | < 9.85 µM | < 9.85 µM | < 9.85 µM | < 9.85 µM
CN[C@@H]1C[C@@H](c2ccc(Cl)c(Cl)c2)c2ccccc21 [Indatraline hydrochloride] | 70.1 µM | 98.4 µM | 36.2 µM | 52.3 µM
CCOc1ccc2ccccc2c1C(=O)N[C@@H]1C(=O)N2[C@@H]1SC(C)(C)[C@@H]2C(=O)O [Nafcillin Sodium] | < 9.85 µM | < 9.85 µM | < 9.85 µM | < 9.85 µM
Cc1cc(F)c(Nc2ncnc3cc(OCc4ccccc4)ccc23)cc1O | > 150 µM | 138 µM | 139 µM | > 150 µM
CC1COc2c(N3CCN(C)CC3)c(F)cc3c(=O)c(C(=O)O)cn1c23 (stereo unspecified) [FLOXIN] | < 9.85 µM | < 9.85 µM | < 9.85 µM | < 9.85 µM
CC[C@@H](C(=O)[C@@H](C)[C@@H](O)[C@H](C)[C@@H]1O[C@@H]([C@@H](CC)C(=O)O)CC[C@@H]1C)[C@H]1O[C@]2(C=C[C@@H](O)[C@]3(CC[C@@](C)([C@H]4CC[C@](O)(CC)[C@H](C)O4)O3)O2)[C@H](C)C[C@@H]1C [KOKCISAN] | 31.9 µM | < 9.85 µM | < 9.85 µM | 32.4 µM
Oc1cc2c(cc1O)CN(C(=S)NCCc1ccc(Cl)cc1)CCC2 [Capsazepine] | 59.4 µM | 111 µM | 34.5 µM | 36.1 µM
O=C(Nc1cccc(C(F)(F)F)c1)Nc1cc(S(=O)(=O)NC2CC2)ccc1-c1ccsc1 [AGI-6780] | 33.7 µM | 36.9 µM | 18.5 µM | 11.6 µM
Oc1c(I)cc(Cl)c2cccnc12 [VIOFORM] | 15 µM | 14.9 µM | < 9.85 µM | < 9.85 µM
CCn1cc(C(=O)O)c(=O)c2cc(F)c(N3CCN(C)CC3)cc21 [PEFLOXACINE MESYLATE] | < 9.85 µM | < 9.85 µM | < 9.85 µM | < 9.85 µM
CC(C)(C)c1nc(-c2cccc(NS(=O)(=O)c3c(F)cccc3F)c2F)c(-c2ccnc(N)n2)s1 | 35 µM | 79.2 µM | < 9.85 µM | < 9.85 µM
CC1(C)C=Cc2c(c3c(c4c(=O)c(-c5ccc(O)c(O)c5)coc24)OC(C)(C)CC3)O1 [ISOPOMIFERIN] | 27 µM | 26.6 µM | 11.8 µM | < 9.85 µM
Cc1ccc(S(=O)(=O)N[C@@H](Cc2ccccc2)C(=O)CCl)cc1 [N-p-Tosyl-L-phenylalanine chloromethyl ketone] | < 9.85 µM | < 9.85 µM | < 9.85 µM | < 9.85 µM
CN1CCN(c2cc3c(cc2F)c(=O)c(C(=O)O)cn3-c2ccc(F)cc2)CC1 [DICURAL] | < 9.85 µM | < 9.85 µM | < 9.85 µM | < 9.85 µM
COc1cc(Nc2ncc3c(n2)-c2ccc(Cl)cc2C(c2c(F)cccc2OC)=NC3)ccc1C(=O)O [MLN8237 (Alisertib)] | 12.4 µM | 27.5 µM | < 9.85 µM | < 9.85 µM
O=C(O)c1cn(C2CC2)c2cc(N3CCNCC3)c(F)cc2c1=O [Ciprofloxacin (Cipro)] | 3.52 µM | 3.52 µM | 0.863 µM | 1.17 µM
C[C@@H](O)[C@H]1C(=O)N2C(C(=O)O)=C(S[C@@H]3CN[C@H](C(=O)N(C)C)C3)[C@H](C)[C@H]12 [MERREM] | 89.8 µM | 98.4 µM | 16 µM | 11.8 µM
CC(C)c1ccc2c(c1)CC[C@H]1[C@](C)(CN)CCC[C@]21C [18-AMINOABIETA-8,11,13-TRIENE SULFATE] | 62.5 µM | 79.2 µM | 55.7 µM | 55.8 µM
O=C1C(Cl)=C(NCCN2CCOCC2)C(=O)c2ncccc21 | 33 µM | 91.7 µM | 28.8 µM | < 9.85 µM
Oc1ccc(/C=C/c2ccc(/C=C/c3ccc(O)cc3)c(Br)c2)cc1 [K114] | < 9.85 µM | < 9.85 µM | < 9.85 µM | < 9.85 µM
CC(C)n1cnc2c(NCCc3ccc(O)cc3)nc(-c3csc4ccccc34)nc21 [StemRegenin 1] | 25.6 µM | 29.9 µM | 15.1 µM | 11.2 µM
COCC(=O)O[C@]1(CCN(C)CCCc2nc3ccccc3[nH]2)CCc2cc(F)ccc2[C@@H]1C(C)C [Mibefradil dihydrochloride] | 41.1 µM | 51.9 µM | 16.4 µM | 11.2 µM
CC(C)c1c(C(=O)Nc2ccccc2)c(-c2ccccc2)c(-c2ccc(F)cc2)n1CC[C@@H](O)C[C@@H](O)CC(=O)O [Atorvastatin calcium (Lipitor)] | 91 µM and 75.8 µM | 73.2 µM and 62.8 µM | 29 µM and 24.3 µM | 30.1 µM and 25.4 µM
O=C(O)c1cn(C2CC2)c2cc(N3CCNCC3)c(F)cc2c1=O [CIPRO] | < 9.85 µM | < 9.85 µM | < 9.85 µM | < 9.85 µM
